From patent US20200230205A1, “COMPOSITIONS AND METHODS FOR TREATING MYELIN DISORDERS” (CASE WESTERN RESERVE UNIVERSITY, priority 2017, published 2020)

Assays:
[1] = test system: MOG35-55-induced EAE mice; test: MOG35-55-induced EAE mouse model, daily intraperitoneal ISP; assay type: in vivo
Source text: For induction of EAE, C57BL6/J female mice at 10-week-old of age were immunized with MOG35-55 together with complete Freund's adjuvant emulsion (Hooke Laboratories, MOG35-55 EAE Induction kit, EK-2110) according to the manufacturers' instruction. Using the EAE Induction Kit result in 98% successful disease induction. All EAE animals were monitored daily and scored using a clinical scale from 0 to 5 (0: no abnormality; 1: limp tail; 2: limp tail and hind legs weakness; 3: limp tail and complete paralysis of hind legs; 4, hind leg and partial front leg paralysis; 5: moribund. Once EAE mice scored for I or 3, they were randomly recruited into treatment group and vehicle group. For treatment group, 5-7 mice were given daily intraperitoneal injections of ISP (20 μg/day), or 5% DMSO in saline, 100 μl) for Vehicle group. Experiments were blinded and animals were scored daily. For ISP Onset: ISP treatment was given at onset of sickness scored by clinical scale. For ISP Peak: ISP treatment was given at peak of sickness scored by clinical scale
LFB staining was performed according to the manufacturer's instruction (#26681, Electron Microscopy Sciences). For spinal cord sections, 20 μm coronal sections were incubated in LFB solution in 56° C. overnight and then rinsed sequentially with 95% alcohol and distilled water. The sections were then in 0.1% lithium carbonate solution and followed dehydration with a series of gradated ethanol, cleared with Histoclear and mounted. A set of serial matched sections were imaged and analyzed. Images (5 to 6 sections/animal) were captured under light microscope. The demyelinated areas (lack of LFB staining) were quantified using ImageJ software. For EAE sections, demyelinated areas were measured and represented as a percentage of total area of spinal cord. For sections of LPC model, lesion volumes were calculated by the lesion area from serial sections throughout the entire lesion based on the equation for volume of cylinder (V=lesion area×length of lesion).
Mice were anesthetized with avertin and perfusion with PBS and 4% paraformaldehyde (PFA). Brain or spinal cord were dissected and post-fixed in 4% PFA overnight at 4° C. and equilibrated in 20% sucrose. 20 μm-thick sections were pretreated with Reveal Decloaker Solution (RV 1000M, Biocare Medical) for antigen retrieval according to the manufacturer's instructions. After blocking, sections were incubated with primary antibodies overnight at 4° C. and followed by appropriate secondary antibodies conjugated with Alexa fluorescence 488 or 594. The following primary antibodies were used: MBP (SMI-99P, Covance, 1:300), NeuF200 (N4142, Sigma, 1:250), CS-56 (C8035, Sigma, 1:250), CAT301 (MAB5284, Millipore, 1:250), versican (AB 1032, Millipore, 1:250), Iba1 (019-19741, WAKO, 1:250), GFAP (MAB360, Millipore, 1:250), Olig2 (AB9610, Millipore, 1:250), CC1 (OP80, Millipore, 1:250). For each staining, at least 3 individual animals/group were examined and images were captured with a Leica DFC500 fluorescence microscope. Staining was quantified using Image J software (US National Instisutes of Health, USA). Fluorescence intensity was calculated as percentages of the mean value of the naïve controls.
For ultrastructural analyses of myelination, anesthetized animals were perfused with 2% glutaraldehyde/4% paraformaldehyde in 0.1 M sodium carcodylate buffer, PH7.4 (Electron Microscopy Sciences). Lesioned areas of the LPC or EAE-induced spinal cords from ISP-treated or control animals were dissected and post-fixed in 1% OsO4 for 2 hrs. Coronal sections ([…]) of spinal cord or brain containing corpus callosum were prepared (Leica, Vibratome), dehydrated, stained with saturated uranyl acetate and embedded in a Poly/Bed812 resin (Polysciences Inc.). The 1 μm-thick sections were cut and stained with toluidine blue, and matched areas were selected for EM analysis. […]

[2] = test system: OPC conditioned media protease activity; test: Conditioned media protease activity assay (EnzChek, quenched casein); assay type: cell-based, mouse; settings: OPCs treated with 2.5 μM ISP, vs vehicle and SISP
Protocol: Around 1×10^6 OPCs were plated per well on PLL, 1 μg/mL laminin, and 2 μg/mL aggrecan coated 6-well plates and treated with vehicle, 2.5 μM ISP or SISP for 2 days at 37° C. CM was collected, cell-strained, and placed on ice until assayed. ThermoFisher Protease Assay Kit (E66383, EnzChek, ThermoFisher) was used to assay protease activity. 1× of the EnzChek mixture was mixed 1:1 with the CM from each group and incubated at RT O/N with gentle shaking. 3 replicates were performed for each sample. Samples were analyzed using a spectrophotometer at 502/528 nm excitation and emission to assess cleaved and fluorescing casein. Fluorescence units reported have been blanked with EnzChek and cell culture media mixture.

OPC secreted proteases = test: Protease array screen of OPC conditioned media; assay type: cell-based, mouse; settings: OPC CM, 2.5 μM ISP for 4 div vs vehicle
Protocol: OPCs were cultured on 6-well plates for 4 div with vehicle control or 2.5 μM ISP treatment. Conditioned media was collected from each group and cell-strained before incubation with blot array provided in R & D Systems Protease Array Kit (ARY025). Instructions from kit were followed with overnight incubation of collected media at 4° C. Control and ISP blots were developed together with the same exposure time and pixel intensities of array was assess using ImageJ (NIH).

[3] = 41 days following EAE induction

In the case of “GRKKRRQRRRCDMAEHMERLKANDSLKLSQEYESI [ISP]”, the “demyelination baseline (LFB) vs vehicle” value ([1]; 18 days following EAE induction) is reported as “not significantly different”, the “GFAP (reactive astrocytes) immunofluorescence” value [1, 3] is reported as “significant decreases” and the “Iba1 (microglia/macrophages) immunofluorescence” value [1, 3] is reported as “significant decreases”. For the same sequence, the “time until functional recovery was initially observed” value ([1]; EAE ISP Onset group, ISP 20 μg/mouse daily i.p., days of ISP administration) was 10 to 12 days, the clinical score ([1]; EAE ISP Onset group, several animals, after 20-22 days of ISP (~33 days post immunization)) was 0.5-1 and the clinical score ([1]; EAE ISP Peak group, ISP started at peak of sickness) was “improved significantly”. The “percentage of CC1+ oligodendrocytes in lesions” value ([1]; EAE animals, 41 days) was “significantly enhanced”, the “number of myelinated/remyelinated axons, electron microscopy” value ([1]; EAE-lesioned spinal cord vs vehicle) was “increase of myelinated/remyelinated axons” and the MBP immunostaining ([1]; ISP for 41 days vs control EAE animals) was “denser”. For the same sequence, the “lesion size, LFB myelin staining” value ([1]; Onset treated animals, spinal cord) was “especially reduced”, the “Arginase-1 (M2 microglia marker) immunostaining” value ([1]; spinal cord of EAE mice) was “increased M2 microglia” and the “iNOS (M microglia marker) immunostaining” value ([1]; spinal cord of EAE mice) was “decreased M microglia”. The “MBP expression, western blot” value ([1]; spinal cord tissue of EAE mice) was “restoration of MBP expression”, the “CSPG (Cat301, aggrecan) immunostaining” value ([1]; thoracic spinal cord, 41 days post-induction) was “markedly decreased” and the “protease activity (fluorescence A.U.)” value [2] was “increased protease activity”. For the same sequence, the “protease array signal for ADAMTS, Kallikreins, Cathepsins, MMPs” value (OPC secreted proteases) was “increased signal” and the “protease array signal for Cathepsins L and V and MMP-10 (laminin degrading)” value (OPC secreted proteases) was “reduced”.
